The source of these data is US7786129B2, “Piperazine derivatives of dialkyl oxindoles” (Egis Gyogyszergyar Nyrt, priority 2004, dated 2010).

The target of one series is T1, 5-HT1A receptor (Rattus norvegicus, UniProt P19327).
T1 construct: from tissue; host or cells: rat frontal cortex membrane preparation
T1 sequence (P19327 1-422): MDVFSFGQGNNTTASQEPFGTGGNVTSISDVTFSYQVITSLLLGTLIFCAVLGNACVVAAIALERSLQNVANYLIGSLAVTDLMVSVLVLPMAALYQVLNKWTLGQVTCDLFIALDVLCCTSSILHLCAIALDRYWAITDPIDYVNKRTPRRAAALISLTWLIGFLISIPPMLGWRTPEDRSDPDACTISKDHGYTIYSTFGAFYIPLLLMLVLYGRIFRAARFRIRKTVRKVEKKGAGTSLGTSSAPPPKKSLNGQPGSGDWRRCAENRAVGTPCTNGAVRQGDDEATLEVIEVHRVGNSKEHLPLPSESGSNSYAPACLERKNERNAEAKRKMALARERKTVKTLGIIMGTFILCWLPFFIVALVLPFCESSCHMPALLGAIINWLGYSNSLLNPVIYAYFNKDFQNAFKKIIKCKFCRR
As to the kind of experiment: 5-HT1A receptor binding. Conditions: rat frontal cortex preparation, ligand tritiated 8-OH-DPAT. As for the experimental part: (§1) Receptor bindings—with the exception of the 5-HT2C receptor binding—were determined by using cerebral region preparations of male Wistar rats weighing 120-200 g. For the preparation of 5-HT1A receptor binding frontal cortex preparations were used. The al receptor binding studies were performed from isolated frontal cortex pre-parations. For the 5-HT2C receptor binding experiments choroid plexus of pigs was used. The protein contents of membrane preparations were determined by the method of Lowry (1951).
5-HT1A receptor binding was measured according to the method of Peroutka (Peroutka, S. J.: J. Neurochem. 47, p. 529 (1986)). The ligand was tritiated 8-hydroxy-N,N-dipropyl-2-aminotetraline (8-OH-DPAT). For the determination of non-specific binding 10 μM serotonin was applied. Incubation […] volume was 250 μl. Incubation was carried out at a temperature of 25 C for 30 minutes. The reaction was terminated by the addition of 9 ml of ice-cold 50 mM TRIS-HCl (pH 7.7) buffer and quick vacuum filtration using Whatman GFIB fibreglass filtering paper. Radioactivity of the filter boards was measured by liquid scintillation spectrometry.
(§2) The IC50 value is the value of concentration where the difference between total and non-specific binding is 50% in the presence of a determined concentration of a specific ligand.

The test system of another series is Male Wistar rats. As to the kind of experiment: Vogel's drinking conflict test. The format is in vivo. Conditions: ip, 0.5 h, rat, i.p. 30 min prior to test, increase in tolerated shocks, read-out: MED. As for the experimental part: The anxiolytic effect of the compounds according to the invention was investigated on rats according to Vogel's drinking conflict test and elevated plus-maze test (S. Pelow, P. Chopin, S. E. File, J. Briley: Neurosci. Methods 14, p. 149 (1985)).
Male Wistar rats weighing 160-180 g were used for the experiment. The animals were deprived of drinking water for 48 hours and fasted for 24 hours prior to test. The test compounds or vehicle were administered intraperitoneally, 30 min prior to test. […] Following every 20 licks electric shocks (0.7 mA) were applied through the drinking spout during the 5 min test period. The number of punished licks were recorded. The effect of the test compounds was expressed as % increase in numbers of tolerated shocks. Minimal effective doses (MED) were determined for each compound.

For the next series, the target named is α1 receptor. As to the kind of experiment: α1 receptor binding experiment. Conditions: rat isolated frontal cortex preparation, ligand 3H-prazosine 0.3 nM. As to the method:
as §1
In the course of 5-HT2C and α1 receptor binding experiments the ligands were ^3H-mesulergin (1.0 nM) and ^3H-prazosine (0.3 nM), respectively. The non-specifically binding ligands were mianserine (1 μM and prazosine (1 μM), respectively.
as §2

Counter-ions that a name gives are not always drawn.

Turning to `CC(C)CC1(CCCCN2CCN(c3cccc(Cl)c3)CC2)C(=O)Nc2ccccc21` (stereo not shown) [Example 75, 3-{4-[4-(3-Chlorophenyl)-piperazin-1-yl]-butyl}-3-isobutyl-1,3-dihydro-2H-indol-2-one monohydrochloride], on 5-HT1A receptor, the IC50 is more than 200 nM. Also, the minimal effective dose in the series with Male Wistar rats was 10 mg/kg. Regarding `CCC1(CCCCN2CCN(c3cccc(Cl)c3)CC2)C(=O)Nc2cc(F)c(Cl)cc21` (stereo not shown) [Example 89, 5-Chloro-3-{4-[4-(3-chlorophenyl)-piperazin-1-yl]-butyl}-3-ethyl-6-fluoro-1,3-dihydro-2H-indol-2-one monohydrochloride], the IC50 on 5-HT1A receptor is more than 300 nM.

In the case of `CCC1(CCCCN2CCN(c3ccc(Cl)c(C(F)(F)F)c3)CC2)C(=O)Nc2ccccc21` (stereo not shown) [Example 96, 3-{4-[4-(4-Chloro-3-trifluoromethyl-phenyl)-piperazin-1-yl]-butyl}-3-ethyl-1,3-dihydro-2H-indol-2-one monohydrochloride], the IC50 at 5-HT1A receptor is more than 400 nM. For the molecule `CCC1(CCCCN2CCN(c3ccccn3)CC2)C(=O)Nc2ccccc21` (stereo not shown) [Example 71, 3-Ethyl-3-[4-(4-pyridin-2-yl-piperazin-1-yl)-butyl]-1,3-dihydro-2H-indol-2-one], in the series on Male Wistar rats, the minimal effective dose came to 20 mg/kg. Molecule `CC(C)CC1(CCCCN2CCN(c3cccc4c3OCCO4)CC2)C(=O)Nc2ccccc21` (stereo not shown) [Example 64, 3-{4-[4-(2,3-Dihydrobenzo[1,4]dioxin-5-yl)-piperazin-1-yl]-butyl}-3-isobutyl-1,3-dihydro-2H-indol-2-one] showed a melting point of 152 to 154 °C. The IC50 on α1 receptor was less than 50 nM. For `CCC1(CCCCN2CCN(c3cccc(Cl)c3)CC2)C(=O)Nc2ccccc21` (stereo not shown) [Example 60, 3-{4-[4-(3-Chlorophenyl)-piperazin-1-yl]-butyl}-3-ethyl-1,3-dihydro-2H-indol-2-one-H2O—HCl-isopropanol (1:1:1:1)], at α1 receptor, the half-maximal inhibitory concentration (IC50) is less than 100 nM. With `CCC1(CCCCN2CCN(c3ccccc3OC)CC2)C(=O)Nc2ccccc21` (stereo not shown) [Example 69, 3-Ethyl-3-{4-[4-(2-methoxyphenyl)-piperazin-1-yl]-butyl}-1,3-dihydro-2H-indol-2-one monooxalate], the minimal effective dose in the series on Male Wistar rats was 10 mg/kg. Regarding `CCC1(CCCCN2CCN(c3cccc(Cl)c3)CC2)C(=O)Nc2c(Cl)cc(Cl)cc21` (stereo not shown) [Example 79, 5,7-Dichloro-3-[4-[4-(3-chlorophenyl)-piperazin-1-yl]-butyl]-3-ethyl-1,3-dihydro-2H-indol-2-one], the melting point lay within 182 to 183 °C. Also, the 50% inhibitory concentration (IC50) on 5-HT1A receptor was more than 400 nM. Take `CCC1(CCCCN2CCN(c3ccc(Cl)cc3)CC2)C(=O)Nc2cc(F)ccc21` (stereo not shown) [Example 86, 3-{4-[4-(4-Chlorophenyl)-piperazin-1-yl]-butyl}-3-ethyl-6-fluoro-1,3-dihydro-2H-indol-2-one]: the melting point lay within 145 to 147 °C. Also, on 5-HT1A receptor, the IC50 is more than 300 nM. Turning to `CCC1(CCCCN2CCN(c3cccc4c3OCCO4)CC2)C(=O)Nc2ccccc21` (stereo not shown) [Example 63, 3-{4-[4-(2,3-Dihydrobenzo[1,4]dioxin-5-yl)-piperazin-1-yl]-butyl}-3-ethyl-1,3-dihydro-2H-indol-2-one], the melting point is 169 to 170 °C. At α1 receptor, the IC50 was less than 50 nM. For `CCC1(CCCCN2CCN(c3ccccn3)CC2)C(=O)Nc2ccc(Br)cc21` (stereo not shown) [Example 59, 5-Bromo-3-ethyl-3-[4-(4-pyridin-2-yl-piperazin-1-yl)-butyl]-1,3-dihydro-2H-indol-2-one], the melting point fell in the range of 114 to 115 °C. Further, on α1 receptor, the IC50 is less than 100 nM. Molecule `CC(C)CC1(CCCCN2CCN(c3ccccn3)CC2)C(=O)Nc2ccccc21` (stereo not shown) [Example 62, 3-Isobutyl-3-[4-(4-pyridin-2-yl-piperazin-1-yl)-butyl]-1,3-dihydro-2H-indol-2-one] had a melting point of 158 to 159 °C. This molecule came in with an IC50 at α1 receptor of less than 100 nM.

One may read the IC50 as the concentration that gives 50% inhibition. Lower therefore signals greater potency. As a reminder, the melting point is the temperature of the solid-liquid transition.
